Like-named read-outs stand apart in the source and are kept apart here.
Legend:
[1] = cited from earlier work
in vivo [2] = conditions: male, rat, po, 50 mg/kg, plasma Raloxifene
[3] = rat, in vivo
in vivo [4] = conditions: rat
Method: Quantification was performed using the selective MRM mode on a short LC column using a fast gradient.
Blood samples were collected at time 0, 30 min and 1, 3, 6, 24, 30 and 48 hrs. All plasma samples were collected after centrifugation and frozen at −80° C. Plasma was transferred on dry ice to the Platform of Biopharmacy and was kept at −80° C. until extraction and LC/MS/MS analysis (Table 1).
The plasma tubes were thawed on ice. Plasma samples were vortex mixed and 20 μL were pipetted into Eppendorf tubes. Proteins were precipitated by the addition of 40 μL acetonitrile. The tubes were vortex mixed and centrifuged for 4.5 min at 13,000 rpm. 20 μL of supernatant was transferred into a HPLC 96-well plate, and mixed with two volumes of water containing 5 mM ammonium acetate. The calibration curve was prepared in blank SD rat plasma, by serial dilution from 10 μM to […] Standard plasma samples were treated as described above.
Chromatography was performed on a Phenomenex Luna C8(2) 30×2 mm (5 μm) using gradient elution at 0.7 mL/min. The injection volume was 4 μL. The total acquisition time was 4.5 min. Samples were analyzed in selective MRM mode using LC-MS/MS. Peak area ratios for calibration curves and quantification of samples were calculated using Analyst software version 1.6.2. Calibration curves were plotted using the peak area ratios analyte/internal standard versus nominal analyte concentration, using a quadratic weighted 1/x regression.

| SMILES | water solubility (in words) [1] | Cmax (in vivo [2]; SD (Sprague-Dawley), Cmax) [nM] | Tmax (in vivo [2]; SD (Sprague-Dawley)) [h] | Tmax (in vivo [2]; SD) [h] | drug toxicity after combination with HA [3] | bioavailability after combination with HA ([3]; po) | Cmax (in vivo [4]; male, SD (Sprague-Dawley), po, 5 mg/kg, Cmax, plasma Letrozole) [nM] | Tmax (in vivo [4]; male, SD (Sprague-Dawley), po, 5 mg/kg, plasma Letrozole) [h] | Tmax (in vivo [4]; male, SD, po, 5 mg/kg, plasma Letrozole) [h] | drug toxicity after combination with HA (in vivo [4]) | bioavailability after combination with HA (in vivo [4]; po) |
| --- | --- | --- | --- | --- | --- | --- | --- | --- | --- | --- | --- |
| O=C(c1ccc(OCCN2CCCCC2)cc1)c1c(-c2ccc(O)cc2)sc2cc(O)ccc12 [Raloxifene] | very poor water solubility | 190 | 4.5 | 3 | no detectable augmentation of the drug toxicity | increased |  |  |  |  |  |
| N#Cc1ccc(C(c2ccc(C#N)cc2)n2cncn2)cc1 [Letrozole] | very poor water solubility |  |  |  |  |  | 4240 | 4.5 | 6 | no detectable augmentation of the drug toxicity | increased |
| CCc1c2c(nc3ccc(OC(=O)N4CCC(N5CCCCC5)CC4)cc13)-c1cc3c(c(=O)n1C2)COC(=O)[C@]3(O)CC [Irinotecan] | good water solubility |  |  |  |  |  |  |  |  |  |  |

Source: US20160346398A1, “CROSS-LINKED HYALURONIC ACID FOR DRUG DELIVERY AND PHARMACEUTICAL PREPARATION USING SAME” (ALURON BIOPHARMA INC., priority 2015, published 2016)
